Assay results reported in US8168197B2, “External composition for skin containing Scrophularia buergeriana miq. extract and the use thereof for the skin moisturizing cosmetics” (Amorepacific Corporation, priority 2007, dated 2012).

Tested on: human skin
Experiment: Production of epidermal lipid (total ceramide) on human skin
Format: in vivo
Settings: 5% test material, 20 μl on human forearm
Method: In order to evaluate the effects of the Scrophularia buergeriana Miq. and Poria cocos Wolf extracts on an increase in the synthesis of lipid on the human skin, the following test was carried out. The composition of the test material consisted of 0.5% of Carbopol ETD 2020, 0.45% of TEA 0.45%, 5% test material and the balance of deionized water. On the forearm of each of 12 adult men and women, a region having a size corresponding to the size of a 50-ml polypropylene conical tube was marked, and then 20 μl of each of control groups, the Scrophularia buergeriana Miq. extract and the Scrophularia buergeriana Miq. extract/Poria cocos Wolf extract mixture was applied on the subjects. Herein, the subjects were divided into two groups, lipids were extracted from the subjects at day 3 and day 11 in the following manner, and the extracted lipid were analyzed. Specifically, the forearm was washed with service water, and then subjected to tape stripping one time with Scotch® 810 Magic tape. Then, 1 ml of a mixture of cyclohexane/ethanol (4:1) was added to the forearm using a 50-ml cut polypropylene conical tube as a reservoir and shaken for about 1 minute, and was then transferred into a fresh tube. […]
After the TLC plate was developed, the size of each band was measured at a wavelength of 570 nm using a TLC Scanner-II densitometer (CAMAG). […]

OCC(O)CO [Glycerin]
production of ceramide relative to the untreated group taken as 100%, 3 days after treatment (3 days after treatment): 102%
production of ceramide relative to the untreated group taken as 100%, 11 days after treatment (11 days after treatment): 94%
